# Molecular target: T1, PN3 (Homo sapiens, UniProt Q9Y5Y9)
# T1 construct: expressed in transfected cells
# Experiment: 14C Guanidinium Ion Influx Binding Assay (flux assay)
# Type: cell-based
# Conditions: activity towards PN3, PN3 stably expressed in a host cell line, deltamethrine 10 μM
# Description: ^14C Guanidinium Ion Influx Binding Assay
# PN3 stably expressed in a host cell line were maintained in DMEM with 5% fetal bovine serum and 300 μg/ml G-418. The cells were subcultured and grown to confluence in 96-well plates 24–48 h before each experiment. After the growth medium was removed, the cells were washed with warm buffer (25 mM Hepes-Tris, 135 mM choline chloride, 5.4 mM potassium chloride, 0.98 mM magnesium sulfate, 5.5 mM glucose, and 1 mg/ml BSA, pH 7.4) and incubated in buffer on a 36° C. slide warmer for approximately 10 minutes. Various concentrations of the test compounds or standard sodium channel blockers (10 μM) and then deltamethrine (10 μM) were added to each well. After the cells were exposed to deltamethrine for 5 minutes, 5 μM of ^14C-guanidinium was added, incubated with the radioligand (30–60 min), washed with ice-cold buffer, and dissolved in 0.1N sodium hydroxide. The radioactivity and the protein concentration of each cell lysate were determined by liquid scintillation counting and the protein assay using Pierce BCA reagent.
# T1 sequence (Q9Y5Y9 whole entry, species assumed): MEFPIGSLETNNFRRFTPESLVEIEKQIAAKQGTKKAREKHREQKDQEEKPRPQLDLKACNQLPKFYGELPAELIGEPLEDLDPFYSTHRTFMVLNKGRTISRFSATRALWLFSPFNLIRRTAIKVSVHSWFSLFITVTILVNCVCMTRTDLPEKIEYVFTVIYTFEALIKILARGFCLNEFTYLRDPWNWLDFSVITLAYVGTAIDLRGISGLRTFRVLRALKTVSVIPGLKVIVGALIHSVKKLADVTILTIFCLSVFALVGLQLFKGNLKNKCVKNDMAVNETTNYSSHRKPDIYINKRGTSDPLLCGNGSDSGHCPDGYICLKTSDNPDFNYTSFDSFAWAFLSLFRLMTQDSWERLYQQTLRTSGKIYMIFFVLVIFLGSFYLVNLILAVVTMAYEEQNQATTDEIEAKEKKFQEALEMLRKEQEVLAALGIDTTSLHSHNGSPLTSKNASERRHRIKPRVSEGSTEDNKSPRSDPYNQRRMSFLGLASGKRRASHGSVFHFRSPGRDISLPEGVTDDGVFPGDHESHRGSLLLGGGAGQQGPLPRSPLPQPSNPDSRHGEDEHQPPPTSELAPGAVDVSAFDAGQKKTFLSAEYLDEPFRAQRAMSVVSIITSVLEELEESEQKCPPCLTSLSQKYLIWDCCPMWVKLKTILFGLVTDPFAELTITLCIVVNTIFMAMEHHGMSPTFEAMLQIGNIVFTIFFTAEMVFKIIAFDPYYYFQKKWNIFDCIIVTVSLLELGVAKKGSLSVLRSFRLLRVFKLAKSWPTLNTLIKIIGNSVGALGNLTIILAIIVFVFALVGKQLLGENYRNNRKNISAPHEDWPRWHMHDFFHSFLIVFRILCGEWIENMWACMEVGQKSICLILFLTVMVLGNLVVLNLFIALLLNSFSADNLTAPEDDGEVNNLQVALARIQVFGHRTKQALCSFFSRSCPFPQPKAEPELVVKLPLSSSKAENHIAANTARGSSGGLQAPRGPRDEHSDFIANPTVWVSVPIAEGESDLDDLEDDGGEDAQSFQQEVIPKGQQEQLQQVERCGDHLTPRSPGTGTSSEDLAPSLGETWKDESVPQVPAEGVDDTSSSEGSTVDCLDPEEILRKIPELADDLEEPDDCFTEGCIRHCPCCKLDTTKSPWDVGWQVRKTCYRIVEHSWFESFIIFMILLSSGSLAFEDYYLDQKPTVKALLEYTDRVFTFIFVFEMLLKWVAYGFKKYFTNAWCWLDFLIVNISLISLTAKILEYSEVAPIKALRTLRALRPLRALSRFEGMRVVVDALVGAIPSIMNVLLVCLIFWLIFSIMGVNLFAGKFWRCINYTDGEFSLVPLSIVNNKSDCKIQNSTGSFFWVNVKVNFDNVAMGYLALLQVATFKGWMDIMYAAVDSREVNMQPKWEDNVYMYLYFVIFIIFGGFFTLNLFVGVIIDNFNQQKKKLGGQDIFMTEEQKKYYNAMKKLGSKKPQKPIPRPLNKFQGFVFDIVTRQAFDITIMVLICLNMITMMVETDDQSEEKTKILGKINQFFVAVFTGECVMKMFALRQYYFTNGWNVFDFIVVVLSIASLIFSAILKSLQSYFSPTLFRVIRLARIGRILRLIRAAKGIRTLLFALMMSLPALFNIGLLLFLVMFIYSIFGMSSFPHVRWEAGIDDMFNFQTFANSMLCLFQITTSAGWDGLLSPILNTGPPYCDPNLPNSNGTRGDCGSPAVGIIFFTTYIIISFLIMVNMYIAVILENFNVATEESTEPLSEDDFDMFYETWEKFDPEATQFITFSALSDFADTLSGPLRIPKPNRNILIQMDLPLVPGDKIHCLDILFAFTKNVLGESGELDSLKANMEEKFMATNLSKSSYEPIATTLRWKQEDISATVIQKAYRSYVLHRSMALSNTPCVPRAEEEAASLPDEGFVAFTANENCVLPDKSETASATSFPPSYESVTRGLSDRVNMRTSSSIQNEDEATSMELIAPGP
row,SMILES,IC50 [µM]
1,"O=C(Nc1ccncc1)c1cnn(-c2ccc(Cl)cc2)c1C(F)(F)F [Compound 23, 1-(4-Chloro-phenyl)-5-trifluoromethyl-1H-pyrazole-4-carboxylic acid pyridin-4-ylamide]",4.1 to 10
2,"O=C(NCCc1ccccc1)c1cnn(-c2ccc(Cl)cc2)c1C(F)(F)F [Compound 114, 1-(4-Chloro-phenyl)-5-trifluoromethyl-1H-pyrazole-4-carboxylic acid phenethyl-amide]",10.1 to 30
3,"O=C(NCCc1ccc(F)cc1)c1cnn(-c2ccc(Cl)cc2)c1C(F)(F)F [Compound 411, 1-(4-Chloro-phenyl)-5-trifluoromethyl-1H-pyrazole-4-carboxylic acid [2-(4-fluoro-phenyl)-ethyl]-amide]",0.1 to 4
4,"O=C(NCCc1ccccc1Cl)c1cnn(-c2ccc(Cl)cc2)c1C(F)(F)F [Compound 414, 1-(4-Chloro-phenyl)-5-trifluoromethyl-1H-pyrazole-4-carboxylic acid [2-(2-chloro-phenyl)-ethyl]-amide]",0.1 to 4
5,"O=C(NCc1ccc(C(F)(F)F)cc1)c1cnn(-c2ccccc2)c1C(F)(F)F [Compound 444, 1-Phenyl-5-trifluoromethyl-1H-pyrazole-4-carboxylic acid 4-trifluoromethyl-benzylamide]",4.1 to 10
6,"O=C(NCCc1cccc(Cl)c1)c1cnn(-c2cccc(Cl)c2)c1 [Compound 449, 1-(3-Chloro-phenyl)-1H-pyrazole-4-carboxylic acid [2-(3-chloro-phenyl)-ethyl]-amide]",0.1 to 4
7,"O=C(NCCc1cccc(Cl)c1)c1cnn(-c2ccc(F)cc2)c1C(F)(F)F [Compound 480, 1-(4-Fluoro-phenyl)-5-trifluoromethyl-1H-pyrazole-4-carboxylic acid [2-(3-chloro-phenyl)-ethyl]-amide]",0.1 to 4
8,"NS(=O)(=O)c1cccc(NC(=O)c2cnn(-c3ccc(Cl)cc3)c2C(F)(F)F)c1 [Compound 1054, 1-(4-Chloro-phenyl)-5-trifluoromethyl-1H-pyrazole-4-carboxylic acid (3-sulfamoyl-phenyl)-amide]",0.1 to 4
9,"CN(C)CCNS(=O)(=O)c1cccc(NC(=O)c2cnn(-c3ccc(Cl)cc3)c2C(F)(F)F)c1 [Compound 1175, 1-(4-Chloro-phenyl)-5-trifluoromethyl-1H-pyrazole-4-carboxylic acid [3-(2-dimethylamino-ethylsulfamoyl)-phenyl]-amide]",4.1 to 10

# Now from value to compound:
row,IC50 [µM],SMILES
1,0.1 to 4,"Cn1nc(-c2ccccc2)cc1NC(=O)c1cnn(-c2ccc(Cl)cc2)c1C(F)(F)F [Compound 20, 1-(4-Chloro-phenyl)-5-trifluoromethyl-1H-pyrazole-4-carboxylic acid (2-methyl-5-phenyl-2H-pyrazol-3-yl)-amide]"
2,0.1 to 4,"CCCc1c(C(=O)NC(Cc2ccccc2)C(=O)OC)cnn1-c1ccccc1 (stereo not shown) [Compound 39, 3-Phenyl-2-[(1-phenyl-5-propyl-1H-pyrazole-4-carbonyl)-amino]-propionic acid methyl ester]"
3,0.1 to 4,"CS(=O)(=O)c1cccc(NC(=O)c2cnn(-c3ccc(Cl)cc3)c2C(F)(F)F)c1 [Compound 154, 1-(4-Chloro-phenyl)-5-trifluoromethyl-1H-pyrazole-4-carboxylic acid (3-methanesulfonyl-phenyl)-amide]"
4,0.1 to 4,"O=C(NCCc1cccc(F)c1)c1cnn(-c2ccc(Cl)cc2)c1C(F)(F)F [Compound 323, 1-(4-Chloro-phenyl)-5-trifluoromethyl-1H-pyrazole-4-carboxylic acid [2-(3-fluoro-phenyl)-ethyl]-amide]"
